Reference: PubChem BioAssay (NCI)
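Compound exposure: 48 hours, 5 concentrations, 96-well plates. GI50: concentration for 50% inhibition of growth. TGI: total growth inhibition.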 Peptide text beside a SMILES is read from it. * marks the point of attachment. OSu = O=C1CCC(=O)N1O*; OBn = c1ccc(CO*)cc1; Bn = c1ccc(C*)cc1

Key:
Experiment in all cases: NCI tumour cell line growth inhibition, 48 h
[1] = tested on: 786-0 renal
[2] = tested on: HCT-116 colon
[3] = tested on: HOP-62 NSCLC
[4] = tested on: NCI-H522 lung
[5] = tested on: OVCAR-3 ovarian
[6] = tested on: RPMI-8226 leukemia
[7] = tested on: SF-295 CNS
[8] = tested on: SF-539 CNS
[9] = tested on: SN12C renal
[10] = tested on: SK-MEL-28 melanoma

| SMILES | TGI [1] [µM] | TGI [2] [µM] | TGI [3] [µM] | TGI [4] [µM] | TGI [5] [µM] | TGI [6] [µM] | TGI [7] [µM] | TGI [8] [µM] | TGI [9] [µM] | TGI [10] [µM] | GI50 [4] [µM] | GI50 [5] [µM] | GI50 [10] [µM] | GI50 [9] [µM] |
| --- | --- | --- | --- | --- | --- | --- | --- | --- | --- | --- | --- | --- | --- | --- |
| COc1cc([C@@H]2c3cc4c(cc3[C@@H](Nc3ccc(NC(=O)c5cc(NC(=O)c6cc([N+](=O)[O-])cn6C)cn5C)cc3)[C@H]3COC(=O)[C@H]23)OCO4)cc(OC)c1O | > 39.7 | 33.3 | 14.4 | > 100 | > 100 | 0.486 | > 100 | > 100 | 26.5 |  |  |  |  |  |
| O=[N+]([O-])c1cc(Cl)ccc1S(=O)(=O)c1cc(Cl)cc2c1NCCC2 | > 100 | > 100 | > 100 |  | > 100 | > 100 | > 100 | > 100 | > 100 | > 100 |  |  |  |  |
| Cn1c(=O)c2[nH]c(-n3nc(-c4ccccc4)cc3N)nc2n(C)c1=O | > 100 | > 100 | > 100 |  | > 100 | > 100 | > 100 | 27.1 | > 100 | 57.3 |  |  |  |  |
| CC1=CC(=O)/C(=C/N2CCNC2=S)C(=O)O1 | > 100 | > 100 | > 100 | > 100 |  | > 100 | > 100 | > 100 | > 100 |  |  |  |  |  |
| CCOC(=O)O/N=C1/C(c2c(O)[nH]c3ccccc23)=Nc2ccccc21 | 28 | 13.6 | 33.9 | 30.2 | 8 | > 100 | 48.8 |  | 23.2 | 41.8 |  |  |  |  |
| COc1c(Cl)c(Cl)c(OC)c2c1C(=O)C=CC2=O | 31.3 | 31.6 |  | 31.7 | 31.6 | 73.1 | 48.8 | 41.2 | 62.2 | 34.7 |  |  |  |  |
| O=C(c1ccccc1)n1[nH]c(=O)n(-c2ccc(Cl)cc2)c1=O | > 100 | > 100 | > 100 |  | > 100 | > 100 | > 100 |  | > 100 | > 100 |  |  |  |  |
| NC(=S)N/N=C(\C(=O)Nc1ccc(Cl)c(Cl)c1)C1=NN(c2ccccc2)C(c2cccc([N+](=O)[O-])c2)CC1=O (configuration not stated) | 36.8 | 11.6 | 84.2 |  | 51.4 | 14.4 | 57.2 | 50.8 | 38.5 | > 100 |  |  |  |  |
| NC(CNc1ccc(O)cc1)C(=O)O (configuration not stated) | 30.2 | > 100 | > 100 | > 100 | > 100 | > 100 | > 100 |  | > 100 | > 100 |  |  |  |  |
| O=C(CCC(=O)OCC1OC(O)(CC2OC(CO)C(O)C(O)C2O)C(O)C1O)OCc1ccccc1 (configuration not stated) | > 100 | > 100 | > 100 | > 100 | > 100 |  | > 100 | > 100 | > 100 | > 100 |  |  |  |  |
| CCOC(=O)CCC(NC(=O)c1ccc(NCc2ccc3nc(-c4ccccc4)c(Cl)nc3c2)c2ccccc12)C(=O)OCC (configuration not stated) | > 100 | > 100 | > 100 | > 100 | > 100 |  | > 100 | > 100 | > 100 | > 100 |  |  |  |  |
| Cc1ccc(C2(c3ccc(C)c(O)c3C)CCN(C)CC2)c(C)c1O | > 100 | > 100 | > 100 | > 100 | > 100 | > 100 | > 100 |  | > 100 | > 100 |  |  |  |  |
| CCc1cc2c(oc3c4ccccc4ccc23)c(=O)[nH]1 | > 10 | > 10 |  | > 10 | > 10 |  | > 10 | > 10 |  |  |  |  |  |  |
| CC(C)CC(NC(=O)C(N)CCC(=O)OCc1ccccc1)C(=O)NC(COCc1ccccc1)C(=O)NC(Cc1ccccc1)C(=O)ON1C(=O)CCC1=O (configuration not stated) (H-E(OBn)LS(Bn)F-OSu; configuration not given here) | > 100 | 33.1 |  | 47.8 |  | 61.4 | 62.7 |  | > 100 | 68.6 |  |  |  |  |
| CC(C)(CN1CCCCC1)C(=O)/C=C/c1c(Cl)cccc1Cl | 2.89 | 2.02 | 4.03 | 0.913 | 2.4 |  | 7.05 | 6.71 | 3.1 | 3.2 |  |  |  |  |
| c1cn[nH]c1 | > 10 | > 10 | > 10 |  | > 10 | > 10 | > 10 | > 10 | > 10 | > 10 |  |  |  |  |
| COc1ccc(N2C(=O)C3c4[nH]c5ccccc5c4C4CCC(C(C)(C)C)CC4C3C2=O)cc1OC (configuration not stated) | 33.9 | 31.4 | 34.8 | 33.4 |  | 61.5 | 42.6 | 34.7 | 48.5 | > 100 |  |  |  |  |

| SMILES | TGI [1] [µM] | TGI [2] [µM] | TGI [3] [µM] | TGI [4] [µM] | TGI [5] [µM] | TGI [6] [µM] | TGI [7] [µM] | TGI [8] [µM] | TGI [9] [µM] | TGI [10] [µM] | GI50 [4] [µM] | GI50 [5] [µM] | GI50 [10] [µM] | GI50 [9] [µM] |
| --- | --- | --- | --- | --- | --- | --- | --- | --- | --- | --- | --- | --- | --- | --- |
| O=c1cc2cc(O)[nH]c(=O)c2c(O)[nH]1 |  | > 100 | > 100 | > 100 | > 100 | > 100 | > 100 | > 100 | > 100 |  |  |  |  |  |
| O=C(NC(CO)CO)c1ccc2cc(C(=O)N3CC(CCl)c4ccc([N+](=O)[O-])cc43)[nH]c2c1 (configuration not stated) | > 100 | > 100 | > 100 |  | > 100 |  | > 100 | > 100 | > 100 | > 100 |  |  |  |  |
| COC(=O)C(N)CCCC(N)C(=O)NC(C)C(=O)NC(CCC(=O)NCCCNc1ccc([N+](=O)[O-])c2[nH]c3ccccc3c(=O)c12)C(N)=O (configuration not stated) | 16.6 | 12.4 | 22.4 |  | 24.9 | 14 | 20.9 |  |  | 22 |  |  |  |  |
| CCCCNCC(O)c1cc(-c2ccc(C(F)(F)F)cc2)nc(-c2ccc(C(F)(F)F)cc2)c1 (configuration not stated) |  |  |  | 3.53 | 3.66 |  |  |  | 3.55 | 3.81 | 1.8 | 1.98 | 2.08 | 1.9 |
| c1ccc2nn(C3CCCCO3)nc2c1 (configuration not stated) | > 100 | > 100 | > 100 | > 100 | > 100 |  | > 100 | > 100 | > 100 |  |  |  |  |  |
| O=C1CC(Cl)c2c(Cl)sc(Cl)c21 (configuration not stated) | 2.82 | 3.12 | 18.6 | 4.51 |  |  | 31.7 | 8.32 | 3.15 | 4.58 |  |  |  |  |
| CN(/N=C/c1ccc(Cl)c(Cl)c1)C1=NCCN1 | 34.2 | 39.1 | 37.7 | 27.8 | > 100 | 60.9 | 69 | 40.4 | 92.7 |  |  |  |  |  |
| CN1N(c2ccccc2)C(=O)C2=NC=C(C#N)C(=N)C21C (configuration not stated) | > 100 | > 100 |  | > 100 | > 100 | > 100 | > 100 | > 100 | > 100 | > 100 |  |  |  |  |
| S=C1CSc2c(cnc3ccccc23)N1 | > 100 | > 100 | > 100 | > 100 | > 100 | > 100 | > 100 |  | > 100 | > 100 |  |  |  |  |
| C/C(=N\n1c(Cc2ccccc2)n[nH]c1=O)c1ccc([N+](=O)[O-])cc1 | > 100 | > 100 | > 100 | > 100 | > 100 | > 100 | > 100 |  | > 100 | > 100 |  |  |  |  |
| Cc1ccsc1/C=N/Nc1ccccn1 | > 100 | > 100 | > 100 |  | > 100 | 56.6 | > 100 |  | > 100 | > 100 |  |  |  |  |
| CCOC(=O)/C=C1/Nc2cc(F)c(F)cc2NC1=O | > 100 | > 100 | > 100 |  | > 100 | > 100 | > 100 | > 100 | > 100 | > 100 |  |  |  |  |
| C1=C[C@]2(CCC13OCCO3)COc1ccccc12 | > 100 | > 100 | > 100 |  | > 100 | > 100 | > 100 |  | > 100 | > 100 |  |  |  |  |
| CC(CN(C)C)C(=O)/C=C/c1ccc(Cl)c(Cl)c1 (configuration not stated) | 2.01 | 2.99 | 10.4 | 3.24 | 3.87 | > 100 | 12.9 |  | 3.11 | 16.5 |  |  |  |  |
| c1ccc(-c2nc3ccccc3n3nnnc23)cc1 | > 100 | > 100 | > 100 |  | > 100 | > 100 |  | > 100 | > 100 | > 100 |  |  |  |  |
| CCCC1C(C#N)(C#N)C(C#N)=C(N)C1(C)C(C)=O (configuration not stated) | > 100 | > 100 |  | > 100 |  | > 100 | > 100 | > 100 | > 100 |  |  |  |  |  |
| O=C1C=C(NCCc2cc(Br)c(O)c(Br)c2)C(=O)c2[nH]cnc21 | > 100 | 43.9 | > 100 | 87.4 | > 100 |  | > 100 | > 100 | > 100 | > 100 |  |  |  |  |
